# Results: ChEMBL document CHEMBL1146928, “Semisynthesis of C-ring modified triptolide analogues and their cytotoxic activities” (Bioorg Med Chem Lett, 2006)
# Assays:
# A549 = experiment: Cytotoxicity against human A549 lung tumor cells; type: functional, cell-based
# HT-29 = experiment: Cytotoxicity against human HT29 colon tumor cells; type: functional, cell-based
SMILES,IC50 (A549),IC50 (HT-29)
CC(C)[C@]12O[C@H]1[C@@H]1O[C@]13[C@]1(O[C@H]1C[C@H]1C4=C(CC[C@@]13C)C(=O)OC4)[C@H]2OC(=S)n1ccnc1,5 µg/mL,0.88 µg/mL
CC(C)[C@]12O[C@H]1[C@@H]1O[C@]13[C@]1(O[C@H]1C[C@H]1C4=C(CC[C@@]13C)C(=O)OC4)[C@@H]2OC(=S)n1ccnc1,0.024 µg/mL,0.004 µg/mL
CC(C)[C@]12O[C@H]1[C@]13O[C@H]1C[C@H]1C4=C(CC[C@]1(C)[C@@]31O[C@H]1[C@H]2O)C(=O)OC4,> 10 µg/mL,> 10 µg/mL
CC(C)[C@]12O[C@H]1[C@@H]1O[C@@]13[C@@]1(C)CCC4=C(COC4=O)[C@@H]1C[C@@H]1O[C@@]13C2=O [TRIPTONIDE],,< 0.00046 µg/mL
CC(C)[C@]12O[C@H]1[C@]13O[C@H]1C[C@H]1C4=C(CC[C@]1(C)[C@@]31O[C@H]1[C@@H]2O)C(=O)OC4,0.27 µg/mL,0.15 µg/mL
CC(C)C1=C[C@]23O[C@H]2C[C@H]2C4=C(CC[C@]2(C)[C@@]32O[C@H]2C1=O)C(=O)OC4,1.2 µg/mL,0.67 µg/mL
CC(C)[C@]12O[C@H]1[C@]13O[C@H]1C[C@H]1C4=C(CC[C@]1(C)[C@@]31O[C@H]1C2=O)C(=O)OC4,0.85 µg/mL,0.7 µg/mL
